Reference: patent EP0752872B1, “NADH OXIDASE AS A TARGET IN DIAGNOSIS AND THERAPY” (Morré, D. James, priority 1994, dated 1995)
Values belong to the compound of their own block, whether it stands above or below them.

What was measured:
[1] = system: plasma membrane NADH oxidase; assay: Spectrophotometric NADH oxidase assay, rat liver plasma membranes (normal cells); assay type: biochemical; conditions: for response of the NADH oxidase activity (in words): in the presence of Mg^2+
Experimental: Purification of plasma membranes from rat liver. A 5000 x g pellet from the preparation of Golgi apparatus (Morré (1971) Meth. Enzymol. 22, 130-148) was the starting material. The fluffy layer which contains the Golgi apparatus fraction was mixed, withdrawn and excluded from the plasma membrane preparations. Cold 1 mM NaHCO3 (5 ml) was added to each tube and the friable yellow-brown upper part of the pellet was resuspended with a pen-brush, leaving the reddish tightly packed bottom part of the pellet undisturbed. The resuspended material was homogenized in aliquots of 5 ml each in a 30 ml stainless steel homogenizer (Duragrind) 20 times by hand. The homogenates were combined, diluted with cold 1 mM NaHCO3 (1:1 dilution), and centrifuged at 6000 x g in a HB rotor for 15 min. The supernatant was discarded and the pellet was used for the two-phase separation (Morré & Morré (1989) BioTechniques 7:946-958).
The two-phase system contained 6.4% (w/w) Dextran T-500 (Pharmacia), 6.4% (w/w) polyethylene glycol) 3350 (Fisher), and 5 mM potassium phosphate buffer (pH 7.2) (Morré & Morré, 1989, supra). The homogenate (1 g) was added to the two-phase system and the weight of the system was brought to 8 g with distilled water. The tubes were inverted vigorously for 40 times in the cold (4°C). The phases were separated by centrifugation at 750 rpm (150 x g) in a Sorvall HB 4 rotor for 5 min. The upper phases were carefully withdrawn with a pasteur pipette, divided in half and transferred into 40 ml plastic centrifuge tubes and diluted with cold 1 mM NaHCO3. The purified plasma membranes were collected by centrifugation at 10,000 x g in a HB rotor for 30 min. Plasma membrane pellets were resuspended in 50 mM Tris-Mes buffer (pH 7.2) and stored at -70°C. Proteins were determined using the bicinchoninic acid (BCA) assay (Smith et al. (1985) Anal. Biochem. […]: 76-85) with bovine serum albumin as standard.
(§1) Spectrophometric assay of NADH oxidase. NADH oxidase activity was determined as the disappearance of NADH measured at 340 nm in a reaction mixture containing 25 mM Tris-MES buffer (pH 7.2), 1 mM KCN to inhibit the low levels of contaminating mitochondrial oxidase activity, and 150 µM NADH at 37°C with constant stirring. Activity was measured using a Hitachi U3210 spectrophotometer with continuous recording over two intervals of 5 min each. A millimolar extinction coefficient of 6.22 was used to determine specific activity.

[2] = system: HeLa cells; assay: Growth of HeLa cells in culture; assay type: cell-based, human
Experimental: Growth of cells. HeLa cells (ATCC CCL2), were grown in 150 cm^2 flasks in Minimal Essential Medium (Gibco), pH 7.4. at 37°C with 10% bovine calf serum (heat-inactivated), plus 50 mg/l gentamycin sulfate (Sigma). Cells were trypsinized with Sigma IX trypsin for 1 to 2 min, harvested by scraping and taken up in TD-tris buffer (140 mM NaCl, 5 mM KCl, 0.7 mM Na2HPO4 and 25 mM Tris, pH 7.4) to a final cell concentration of 0.1 g wet weight (gww) per ml.
The number of cells initially plated was subtracted. The results were averages from duplicate experiments.

[3] = system: protein disulfide-thiol interchange of HeLa plasma membranes; assay: Protein disulfide-thiol interchange (restoration of scrambled RNAse activity, yeast RNA hydrolysis method); assay type: biochemical, human; conditions: for protein disulfide-thiol interchange, I: column I; for protein disulfide-thiol interchange, II: column II; for protein disulfide-thiol interchange, III: column III
Experimental: Estimation of protein disulfide isomerase- (PDI) like activity. Two methods were employed to determine PDI or PDI-like activity. […] For the assay, 100 µl was transferred to each of 4 tubes. Yeast RNA (100 µl, 0.33 mg/ml, pH 5.0) was added. After 0 min and 10 min, the reaction was stopped by the addition of 100 µl of 25% percholoric acid containing 0.75% uranyl acetate. The tubes were cooled in an ice bath for 5 min and clarified by centrifugation (2 min, microfuge). The 75 µl of the clear supernatant was diluted to 3.0 ml with water. The absorbance was measured at […] against an unincubated blank. […] To prepare the oxidized, denatured RNAse substrate (scrambled RNAse), native RNAse A (Sigma, Type 1-AS from bovine pancreas) (30 µg/ml) was incubated 1 h at 35°C in 50 mM Tris-acetate, pH 8.6, containing 9 M urea and 130 mM DTT. […] Protein concentration was estimated from spectrophotometric measurement at 280 nm using native RNAse A as standard. For preparation of scrambled RNAse, the reduced RNAse was diluted to 0.5 mg/ml with 0.1 M acetic acid. […] The scrambled product was recovered by acidification to pH 4 with glacial acetic acid and elution from Sephadex G-25 in 0.1 M acetic acid. Fractions containing protein were pooled, adjusted to pH 8 and stored at 4°C.

[4] = system: Protein disulfide-thiol interchange activity of HeLa plasma membrane; assay: Protein disulfide-thiol interchange (RNAse activity with cCMP as substrate); assay type: biochemical, human; conditions: None 1.6
Experimental: Estimation of protein disulfide isomerase- (PDI) like activity. Two methods were employed to determine PDI or PDI-like activity.
(§2) In the first method, ribonuclease A activity was measured using a spectrophotometric assay based on cCMP as RNAse substrate. Scrambled RNAse (90.363 mg) was incubated together with 0.45 mM cCMP in 50 Mm Tris-MES buffer, pH 6.5, at 30°C in a final volume of 3 ml. […] A variation of this assay was to preincubate scrambled RNAse with transitional endoplasmic reticulum for 20 min in the presence or absence of 1 µM all-trans retinol (using ethanol as control) and in the presence or absence of 1 µM reduced or oxidized glutathione or a mixture of both. After this 20 min of "reactivation" of RNAse, cCMP was added to a final concentration of 0.45 mM to initiate the reaction. The increase of the absorbance at 296 nm was recorded over 25 min and the concentrations of cCMP were determined (E = 0.19 mM^-1cm^-1). Spectrophotometric measurements were with a Hitachi U3210 spectrophotometer with a thermostatic cell compartment maintained at 30°C with continuous stirring.
Preparation of scrambled RNAse substrate. To prepare the oxidized, denatured RNAse substrate (scrambled RNAse), native RNAse A (Sigma, Type 1-AS from bovine pancreas) (30 µg/ml) was incubated 1 h at 35°C in 50 mM Tris-acetate, pH 8.6, containing 9 M urea and 130 mM DTT.
Protein concentration was estimated from spectrophotometric measurement at 280 nm using native RNAse A as standard. For preparation of scrambled RNAse, the reduced RNAse was diluted to 0.5 mg/ml with 0.1 M acetic acid. Solid urea was then added to a final concentration of 10 M after which 0.1 M sarcosine hydrochloride was added and the pH adjusted to 8.5 with 1 M Tris. The mixture then was incubated in the dark for 2-3 days during which time the protein was randomly oxidized. The scrambled product was recovered by acidification to pH 4 with glacial acetic acid and elution from Sephadex G-25 in 0.1 M acetic acid. Fractions containing protein were pooled, adjusted to pH 8 and stored at 4°C.

[5] = system: circulating NADH oxidase in the serum; assay: NADH oxidase activity of human serum; assay type: biochemical; conditions: normal human serum
Experimental: as §1

[6] = system: NADH oxidase activity of culture medium with HeLa cells; assay: NADH oxidase activity of culture medium with HeLa cells; assay type: biochemical, human
Experimental: As is characteristic of many ectoproteins of the mammalian cell surface, an NADH oxidase activity is present in the serum and in HeLa cell culture filtrate. The NADH oxidase activity of culture medium with HeLa cells is proportional to time of incubation and to the amount of medium added. […] The activity is inhibited by 85°C for 20 min, trypsin, N-ethyl maleimide and PCMB, and guanosine nucleotides. These activities have properties similar to those of the plasma membrane-bound form. The circulating form appears to have a lower molecular weight (ca. 32 kD) than the membrane-bound form. The circulating NADH oxidase in the serum of cancer patients is inhibited by adriamycin whereas the circulating NADH oxidase in the serum of healthy individuals is not. Further details from this observation are found in the examples.

[7] = molecular target: T1, native RNAse (Bos taurus, UniProt P61823); assay: Activity of native RNAse; assay type: biochemical, bovine; conditions: sulfonylurea 1 µM; for activity of native RNAse, pH 6.0: None 0.15; for activity of native RNAse, pH 6.8: None 0.21
T1 construct: native RNAse A (Sigma, Type 1-AS from bovine pancreas); purchased Sigma Type 1-AS; host or cells: bovine pancreas
T1 sequence (P61823 27-150): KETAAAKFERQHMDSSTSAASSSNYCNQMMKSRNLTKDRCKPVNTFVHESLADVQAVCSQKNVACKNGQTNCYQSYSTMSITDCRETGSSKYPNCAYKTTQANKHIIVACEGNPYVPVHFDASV
Experimental: as §2, with “substrate.” for “substrate. Scrambled RNAse (90.363 mg) was incubated together with 0.45 mM cCMP in 50 Mm Tris-MES buffer, pH 6.5, at 30°C in a final volume of 3 ml.”, “[…] […]” for “A variation of this assay was to preincubate scrambled RNAse with transitional endoplasmic”

[8] = substance alone, thiol addition 1 µM, none 0.11
[9] = substance alone, thiol addition 1 µM, none 0.047
[10] = biphasic response, read-out: Km at low NADH concentrations

Compound: mastoparan
response of the hormone- and growth-stimulated NADH oxidase (in words) [1]: activated

Compound: Nc1ccc(Cl)cc1 [free chloroaniline, chloroaniline]
inhibition of growth of HeLa cells (in words) [2]: inactive

protein disulfide-thiol interchange, I [3, 8]: 0.06 0.D./10 min
protein disulfide-thiol interchange, II [3, 9]: 0.06 0.D./10 min
protein disulfide-thiol interchange, III ([3]; substance alone, thiol addition 1 µM, none 0.021): 0.041 0.D./10 min
Protein disulfide-thiol interchange activity ([4]; thiol treatment, concentration not given): 2.1 nmoles/min/mg protein
Compound: N[C@@H](CCC(=O)N[C@@H](CS)C(=O)NCC(=O)O)C(=O)O [GSH, reduced glutathione]

Compound: CCN1C(=O)C=CC1=O [N-ethyl maleimide]
inhibition of NADH oxidase activity (in words) [5]: inhibited
inhibition of NADH oxidase activity (in words) [6]: inhibited

Compound: Nc1nc2c(ncn2[C@@H]2O[C@H](COP(=O)(O)OP(=O)(O)OP(O)(O)=S)[C@@H](O)[C@H]2O)c(=O)[nH]1 [GTP [γ-S]]
response of the NADH oxidase activity (in words) [1]: inhibited

Compound: aluminum fluoride
response of the hormone- and growth-stimulated NADH oxidase (in words) [1]: weakly inhibitory

activity of native RNAse, pH 6.0 [7]: 0.15 µmol/mg/min
activity of native RNAse, pH 6.8 [7]: 0.21 µmol/mg/min
Compound: Cc1ccc(S(=O)(=O)NC(=O)Nc2ccccc2)cc1 [LY181985, N-(4-methylphenylsulfonyl)-N'-(phenyl)urea]

Compound: NC(=O)C1=CN([C@@H]2O[C@H](COP(=O)(O)OP(=O)(O)OC[C@H]3O[C@@H](n4cnc5c(N)ncnc54)[C@H](O)[C@@H]3O)[C@@H](O)[C@H]2O)C=CC1 [NADH, reduced pyridine nucleotide]
Km [5, 10]: 25 µM
Km [6, 10]: 15 µM

Compound: O=C(O)c1cc[c]([Hg][Cl])cc1 [PCMB, p-chloromercuribenzoate]
inhibition of NADH oxidase activity (in words) [5]: inhibited
inhibition of NADH oxidase activity (in words) [6]: inhibited

Compound: Nc1nc2c(ncn2[C@@H]2O[C@H](COP(=O)(O)OP(=O)(O)O)[C@@H](O)[C@H]2O)c(=O)[nH]1 [GDP]
response of the NADH oxidase activity (in words) [1]: inhibited

Compound: CC1=CC(=O)[C@@H](O)[C@]2(C)[C@H]3[C@@]4(O)OC[C@]35[C@H]([C@@H](C)[C@H]4O)[C@@H](O)C(=O)O[C@@H]5C[C@@H]12 [(-)-glaucarubolone]
IC50 ([1]; liver plasma membranes, Figure 3, read-out: final concentration at which the activity was 50% inhibited): ~1 nM

activity of native RNAse, pH 6.0 [7]: 0.14 µmol/mg/min
activity of native RNAse, pH 6.8 [7]: 0.21 µmol/mg/min
protein disulfide-thiol interchange, I [3, 8]: 0.076 0.D./10 min
protein disulfide-thiol interchange, I ([3]; sulfonylurea with GSH 1 µM): 0.056 0.D./10 min
protein disulfide-thiol interchange, I ([3]; sulfonylurea with GSSG 1 µM): 0.044 0.D./10 min
protein disulfide-thiol interchange, II [3, 9]: 0.049 0.D./10 min
protein disulfide-thiol interchange, II ([3]; sulfonylurea with GSH 1 µM): 0.03 0.D./10 min
protein disulfide-thiol interchange, II ([3]; sulfonylurea with GSSG 1 µM): 0.04 0.D./10 min
protein disulfide-thiol interchange, III ([3]; sulfonylurea with GSH 1 µM): 0.018 0.D./10 min
protein disulfide-thiol interchange, III ([3]; sulfonylurea with GSSG 1 µM): 0.016 0.D./10 min
inhibition of protein disulfide isomerase-like activity (in words) ([3]; plasma membrane vesicles isolated from HeLa cells): inhibited the activity
Protein disulfide-thiol interchange activity ([4]; treatment at 1 µM): 1.0 nmoles/min/mg protein
Compound: Cc1ccc(S(=O)(=O)NC(=O)Nc2ccc(Cl)cc2)cc1 [LY181984, N-(4-methylphenylsulfonyl)-N'-(4-chlorophenyl) urea]

inhibition of NADH oxidase activity (in words) [5]: inhibited
Compound: Nc1nc2c(ncn2[C@@H]2O[C@H](COP(=O)(O)OP(=O)(O)OP(=O)(O)O)[C@@H](O)[C@H]2O)c(=O)[nH]1 [GTP]
